Laboratory results: ChEMBL document CHEMBL2146401, “Synthesis and biological evaluation of novel homochiral carbocyclic nucleosides from 1-amino-2-indanols” (Bioorg Med Chem, 2012)

Legend:
Hepatitis B virus [1] = experiment: Antiviral activity against Hepatitis B virus infected in HepG2(2.2.15) cells assessed as reduction in HBsAg level at 20 uM after 9 days by ELISA; type: functional; settings: HepG2 2.2.15, 216 h
[2] = Cytotoxicity against african green monkey Vero cells assessed as cell viability after 2 days by MTS/PMS assay; type: cell-based; settings: chlorocebus sabaeus
[3] = Cytotoxicity against bovine MDBK cells assessed as cell viability after 3 days by MTS/PMS assay; type: cell-based, Bos taurus; settings: cattle
[4] = Cytotoxicity against human HepG2(2.2.15) cells assessed as cell viability after 9 days by MTS/PMS assay; type: cell-based
Human alphaherpesvirus 1 [5] = experiment: Antiviral activity against Herpes simplex virus (type 1 / strain F) infected in Vero cells assessed as reduction of number of viral plaques at 100 uM after 2 days relative to control; type: functional; settings: Human alphaherpesvirus 1, strain F, 48 h
Hepatitis B virus [6] = experiment: Antiviral activity against Hepatitis B virus infected in HepG2(2.2.15) cells assessed as reduction in HBsAg level at 100 uM after 9 days by ELISA relative to control; type: functional; settings: HepG2 2.2.15, 216 h
Human alphaherpesvirus 1 [7] = experiment: Antiviral activity against Herpes simplex virus (type 1 / strain F) infected in Vero cells assessed as reduction of number of viral plaques after 2 days; type: functional, organism-based; settings: Human alphaherpesvirus 1, strain F, 48 h
[8] = Cytotoxicity against bovine MDBK cells assessed as cell viability after 72 hrs by MTS/PMS assay; type: cell-based, Bos taurus; settings: cattle
[9] = Cytotoxicity against african green monkey Vero cells assessed as cell viability after 72 hrs by MTS/PMS assay; type: cell-based; settings: chlorocebus sabaeus
[10] = Cytotoxicity against human HepG2(2.2.15) cells assessed as cell viability after 72 hrs by MTS/PMS assay; type: cell-based
Human alphaherpesvirus 1 [11] = experiment: Antiviral activity against Herpes simplex virus (type 1 / strain F) infected in Vero cells assessed as reduction of number of viral plaques at 31.25 uM after 2 days relative to control; type: functional; settings: Human alphaherpesvirus 1, strain F, 48 h
[12] = Antiviral activity against Bovine viral diarrhea virus 1-NADL ATCC VR534 infected in MDBK cells assessed as reduction of viral cytopathic effect after 2 days bt MTS assay; type: functional, cell-based; settings: Bovine viral diarrhea virus isolates and strains, 48 h
[13] = Antiviral activity against Bovine viral diarrhea virus 1-NADL ATCC VR534 infected in MDBK cells assessed as reduction of viral cytopathic effect at 100 uM after 2 days by MTS assay relative to control; type: functional; settings: Bovine viral diarrhea virus isolates and strains, 48 h

SMILES: Nc1ccn([C@@H]2CS[C@H](CO)O2)c(=O)n1 [LAMIVUDINE]
- inhibition at 20 µM (Hepatitis B virus [1]): 45%

SMILES: Nc1ncnc2c1nnn2[C@@H]1c2ccccc2C[C@H]1O
- CC50 at 48 h [2]: > 500 µM
- CC50 at 72 h [3]: > 500 µM
- CC50 at 216 h [4]: > 500 µM
- inhibition at 100 µM (Human alphaherpesvirus 1 [5]): 7.8%
- inhibition at 100 µM (Hepatitis B virus [6]): 42.1%

SMILES: O[C@@H]1Cc2ccccc2[C@H]1n1cnc2c(Cl)ncnc21
- CC50 at 48 h [2]: > 500 µM
- CC50 at 72 h [3]: > 500 µM
- CC50 at 216 h [4]: > 500 µM
- inhibition at 100 µM (Human alphaherpesvirus 1 [5]): 7.2%
- inhibition at 100 µM (Hepatitis B virus [6]): 22.6%

SMILES: Oc1ncnc2c1nnn2[C@H]1c2ccccc2C[C@@H]1O
- CC50 at 48 h [2]: > 500 µM
- CC50 at 72 h [3]: > 500 µM
- CC50 at 216 h [4]: > 500 µM
- inhibition at 100 µM (Hepatitis B virus [6]): 25.2%

SMILES: Nc1nc2c(ncn2COCCO)c(=O)[nH]1 [ACYCLOVIR]
- EC50 (Human alphaherpesvirus 1 [7]): 0.5 µM

SMILES: Oc1ncnc2c1nnn2[C@@H]1c2ccccc2C[C@@H]1O
- CC50 at 48 h [2]: > 500 µM
- CC50 at 72 h [3]: > 500 µM
- CC50 at 216 h [4]: > 500 µM
- inhibition at 100 µM (Human alphaherpesvirus 1 [5]): 12.8%
- inhibition at 100 µM (Hepatitis B virus [6]): 35.3%

SMILES: O[C@@H]1Cc2ccccc2[C@@H]1n1cnc2c(Cl)ncnc21
- CC50 at 72 h [8]: 14.3 µM
- CC50 at 72 h [9]: 254 µM
- CC50 at 72 h [10]: 308 µM
- inhibition at 31.25 µM (Human alphaherpesvirus 1 [11]): 20.9%

SMILES: Oc1ncnc2c1nnn2[C@H]1c2ccccc2C[C@H]1O
- CC50 at 48 h [2]: > 500 µM
- CC50 at 72 h [3]: > 500 µM
- CC50 at 216 h [4]: > 500 µM
- inhibition at 100 µM (Human alphaherpesvirus 1 [5]): 15.8%
- inhibition at 100 µM (Hepatitis B virus [6]): 27.7%

SMILES: O[C@H]1Cc2ccccc2[C@@H]1n1cnc2c(Cl)ncnc21
- CC50 at 48 h [2]: > 500 µM
- CC50 at 72 h [3]: > 500 µM
- CC50 at 216 h [4]: > 500 µM
- inhibition at 100 µM (Human alphaherpesvirus 1 [5]): 16.2%
- inhibition at 100 µM (Hepatitis B virus [6]): 14.2%

SMILES: NC(=O)c1ncn([C@@H]2O[C@H](CO)[C@@H](O)[C@H]2O)n1 [RIBAVIRIN]
- EC50 [12]: 4.6 µM

SMILES: Nc1ncnc2c1nnn2[C@H]1c2ccccc2C[C@H]1O
- CC50 at 48 h [2]: > 500 µM
- CC50 at 72 h [3]: > 500 µM
- CC50 at 216 h [4]: > 500 µM
- inhibition at 100 µM (Human alphaherpesvirus 1 [5]): 20.9%
- inhibition at 100 µM [13]: 42.1%
- inhibition at 100 µM (Hepatitis B virus [6]): 41.4%

SMILES: Oc1ncnc2c1nnn2[C@@H]1c2ccccc2C[C@H]1O
- CC50 at 48 h [2]: > 500 µM
- CC50 at 72 h [3]: > 500 µM
- CC50 at 216 h [4]: > 500 µM
- inhibition at 100 µM (Hepatitis B virus [6]): 16.6%

SMILES: Nc1ncnc2c1nnn2[C@H]1c2ccccc2C[C@@H]1O
- CC50 at 48 h [2]: 311 µM
- CC50 at 72 h [3]: > 500 µM
- CC50 at 216 h [4]: > 500 µM
- inhibition at 100 µM (Human alphaherpesvirus 1 [5]): 14.5%
- inhibition at 100 µM (Hepatitis B virus [6]): 37.2%

SMILES: Nc1ncnc2c1nnn2[C@@H]1c2ccccc2C[C@@H]1O
- CC50 at 48 h [2]: 202 µM
- CC50 at 72 h [3]: > 500 µM
- CC50 at 216 h [4]: > 500 µM
- inhibition at 100 µM [13]: 19.4%
- inhibition at 100 µM (Hepatitis B virus [6]): 17.6%

SMILES: O[C@H]1Cc2ccccc2[C@H]1n1cnc2c(Cl)ncnc21
- CC50 at 48 h [2]: > 500 µM
- CC50 at 72 h [3]: > 500 µM
- CC50 at 216 h [4]: > 500 µM
- inhibition at 100 µM (Human alphaherpesvirus 1 [5]): 23.2%
- inhibition at 100 µM [13]: 19.7%
- inhibition at 100 µM (Hepatitis B virus [6]): 30.8%
